According to ChEMBL document CHEMBL4251700, “Novel Staphyloxanthin Inhibitors with Improved Potency against Multidrug Resistant Staphylococcus aureus” (ACS Med Chem Lett, 2018):
Positions count from the first letter of the chain named. pIC50: −log10 of the molar value. Active and inactive are the calls of the source. No cut-off for these calls is given here.

Columns and labels:
[1] = Solubility of the compound in water at 10 mg measured after 24 hrs by HPLC method; type: physicochemical
[2] = target: T1, 4,4'-diapophytoene desaturase (4,4'-diaponeurosporene-forming) (Staphylococcus aureus (strain Newman), UniProt O07855); experiment: Inhibition of CrtN in Staphylococcus aureus Newman assessed as reduction in staphyloxanthin levels after 48 hrs by spectrophotometric method-based pigment inhibition assay; set-up: species or system Staphylococcus aureus subsp. aureus str. Newman
T1 sequence (O07855 whole entry): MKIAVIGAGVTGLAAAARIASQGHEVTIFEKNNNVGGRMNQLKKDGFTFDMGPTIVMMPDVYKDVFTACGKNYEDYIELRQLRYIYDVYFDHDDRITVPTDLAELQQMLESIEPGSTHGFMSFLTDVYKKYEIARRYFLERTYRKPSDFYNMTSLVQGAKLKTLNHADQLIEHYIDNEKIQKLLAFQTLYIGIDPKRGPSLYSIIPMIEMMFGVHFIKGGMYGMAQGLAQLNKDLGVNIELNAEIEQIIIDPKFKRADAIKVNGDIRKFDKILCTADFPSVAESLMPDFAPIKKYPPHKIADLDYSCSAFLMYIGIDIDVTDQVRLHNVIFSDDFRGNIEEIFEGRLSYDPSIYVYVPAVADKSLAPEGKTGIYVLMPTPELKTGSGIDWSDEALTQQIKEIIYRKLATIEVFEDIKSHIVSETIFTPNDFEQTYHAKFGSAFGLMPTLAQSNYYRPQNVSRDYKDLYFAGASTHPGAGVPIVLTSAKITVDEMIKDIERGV

[3] = Half life in human liver microsomes at 2 uM by LC-MS/MS analysis; type: ADME, microsome
[4] = target: T1, 4,4'-diapophytoene desaturase (4,4'-diaponeurosporene-forming); experiment: Inhibition of Staphylococcus aureus Newman […]-tagged CrtN expressed in Escherichia coli BL21(DE3))/pET28a::CrtN assessed as reduction in staphyloxanthin levels using diapophytoene as substrate after overnight incubation; set-up: species or system Staphylococcus aureus subsp. aureus str. Newman
[5] = target: T2, 4,4'-diapophytoene desaturase (4,4'-diaponeurosporene-forming) (Staphylococcus aureus (strain Mu50 / ATCC 700699), UniProt Q99R76); experiment: Inhibition of CrtN in vancomycin-intermediate Staphylococcus aureus Mu50 assessed as reduction in staphyloxanthin levels after 48 hrs by spectrophotometric method-based pigment inhibition assay; set-up: species or system Staphylococcus aureus subsp. aureus Mu50
T2 sequence (Q99R76 whole entry): T1 sequence (O07855 whole entry)

[6] = target: T1, 4,4'-diapophytoene desaturase (4,4'-diaponeurosporene-forming); experiment: Inhibition of CrtN in linezolid-resistant Staphylococcus aureus NRS271 assessed as reduction in staphyloxanthin levels after 48 hrs by spectrophotometric method-based pigment inhibition assay
[7] = target: T3, 4,4'-diapophytoene desaturase (4,4'-diaponeurosporene-forming) (Staphylococcus aureus (strain MW2), UniProt Q8NUQ6); experiment: Inhibition of CrtN in methicillin-resistant Staphylococcus aureus USA400 MW2 assessed as reduction in staphyloxanthin levels after 48 hrs by spectrophotometric method-based pigment inhibition assay; set-up: species or system Staphylococcus aureus subsp. aureus MW2
T3 sequence (Q8NUQ6 whole entry): T1 sequence (O07855 whole entry) with R500Q

[8] = target: T3, 4,4'-diapophytoene desaturase (4,4'-diaponeurosporene-forming); experiment: Inhibition of CrtN in methicillin-resistant Staphylococcus aureus LAC USA300 assessed as reduction in staphyloxanthin levels after 48 hrs by spectrophotometric method-based pigment inhibition assay; set-up: species or system Staphylococcus aureus subsp. aureus USA300
Staphylococcus aureus [9] = experiment: Antibacterial activity against vancomycin-intermediate Staphylococcus aureus Mu50 infected in BALB/c mouse assessed as reduction of bacterial burden in heart at 0.1 mg, ip bid for 3.5 days administered 6 hrs post bacterial infection measured 84 hrs post infection relative to control; type: functional
Staphylococcus aureus [10] = experiment: Antibacterial activity against vancomycin-intermediate Staphylococcus aureus Mu50 infected in BALB/c mouse assessed as reduction of bacterial burden in heart at 0.4 mg, ip bid for 3.5 days administered 6 hrs post bacterial infection measured 84 hrs post infection relative to control; type: functional
Staphylococcus aureus [11] = experiment: Antibacterial activity against vancomycin-intermediate Staphylococcus aureus Mu50 infected in BALB/c mouse assessed as reduction of bacterial burden in liver at 0.1 mg, ip bid for 3.5 days administered 6 hrs post bacterial infection measured 84 hrs post infection; type: functional, organism-based
Staphylococcus aureus [12] = experiment: Antibacterial activity against vancomycin-intermediate Staphylococcus aureus Mu50 infected in BALB/c mouse assessed as reduction of bacterial burden in liver at 0.4 mg, ip bid for 3.5 days administered 6 hrs post bacterial infection measured 84 hrs post infection; type: functional, organism-based
Staphylococcus aureus [13] = experiment: Antibacterial activity against vancomycin-intermediate Staphylococcus aureus Mu50 infected in BALB/c mouse assessed as reduction of bacterial burden in liver at 0.1 mg, ip bid administered at 12 hrs prior to bacterial infection dosed at 12 intervals for 4.5 days; type: functional, organism-based
Staphylococcus aureus [14] = experiment: Antibacterial activity against vancomycin-intermediate Staphylococcus aureus Mu50 infected in BALB/c mouse assessed as reduction of bacterial burden in liver at 0.4 mg, ip bid administered at 12 hrs prior to bacterial infection dosed at 12 intervals for 4.5 days; type: functional, organism-based

SMILES | pIC50 [2] | also measured
CN(C/C=C/c1ccc(C(F)(F)F)cc1)Cc1ccc2c(c1)CCCC2.Cl |  | solubility at 24 h [1]: 690 µg/mL
CN(C/C=C/c1ccccc1Cl)Cc1ccc2c(c1)OCCO2 | 7.04 | 
Cc1ccccc1/C=C/CN(C)Cc1ccc2c(c1)OCCO2 | < 6.00 | 
Cc1ncc2n1-c1ccc(Cl)cc1C(c1ccccc1F)=NC2 [MIDAZOLAM] |  | half-life at 2 µM [3]: 4.2 min
CN(C/C=C/c1ccc(C(F)(F)F)cc1)Cc1ccc2c(c1)OCCO2.Cl | 8.54 | pIC50 [4]: 6.47; pIC50 [5]: 8.92; pIC50 [6]: 8.96; pIC50 [7]: 8.19; pIC50 [8]: 8.23; solubility at 24 h [1]: 13500 µg/mL
CN(C/C=C/c1cccs1)Cc1ccc2c(c1)OCCO2 | 6.66 | 
CN(C/C=C/C1CCCC1)Cc1ccc2c(c1)OCCO2 | 6.49 | 
CN(C/C=C/c1ccc(C(C)(C)C)cc1)Cc1ccc2c(c1)OCCO2 | 6.81 | 
CN(C/C=C/c1ccco1)Cc1ccc2c(c1)OCCO2 | 6.64 | 
CN(C/C=C/c1ccccc1C(F)(F)F)Cc1ccc2c(c1)OCCO2 | < 6.00 | 
CN(C/C=C/c1ccc(Cl)cc1Cl)Cc1ccc2c(c1)OCCO2 | 7.82 | 
CN(C/C=C/c1ccc(Cl)cc1)Cc1ccc2c(c1)OCCO2 | 8.17 | 
CN(C/C=C/c1cccc2ccccc12)Cc1ccc2c(c1)OCCO2 | < 6.00 | 
CN(C/C=C/c1cccc(C(F)(F)F)c1)Cc1ccc2c(c1)OCCO2 | < 6.00 | 
COc1ccc(/C=C/CN(C)Cc2ccc3c(c2)CCCCC3)cc1.Cl |  | pIC50 [7]: 8.15; pIC50 [8]: 8.11; solubility at 24 h [1]: 4200 µg/mL
CN[C@H](CC(C)C)C(=O)N[C@H]1C(=O)N[C@@H](CC(N)=O)C(=O)N[C@H]2C(=O)N[C@H]3C(=O)N[C@H](C(=O)N[C@H](C(=O)O)c4cc(O)cc(O)c4-c4cc3ccc4O)[C@H](O)c3ccc(c(Cl)c3)Oc3cc2cc(c3O[C@@H]2O[C@H](CO)[C@@H](O)[C@H](O)[C@H]2O[C@H]2C[C@](C)(N)[C@H](O)[C@H](C)O2)Oc2ccc(cc2Cl)[C@H]1O |  | Activity (Staphylococcus aureus [9]): Active; Activity (Staphylococcus aureus [10]): Active; Activity (Staphylococcus aureus [11]): Active; Activity (Staphylococcus aureus [12]): Active; Activity (Staphylococcus aureus [13]): Active; Activity (Staphylococcus aureus [14]): Active
CN(C/C=C/c1ccc(C(F)(F)F)cc1F)Cc1ccc2c(c1)OCCO2 | 8.06 | 
CN(C/C=C/c1ccccc1[N+](=O)[O-])Cc1ccc2c(c1)OCCO2 | < 6.00 | 
CN(C/C=C/c1cccc(F)c1)Cc1ccc2c(c1)OCCO2 | < 6.00 | 
CN(C/C=C/c1cccc([N+](=O)[O-])c1)Cc1ccc2c(c1)OCCO2 | < 6.00 | 
C/C=C/CN(C)Cc1ccc2c(c1)OCCO2 | < 6.00 | 
